Measured values as given in US10793535B2, “Heterocyclic glutaminase inhibitors” (Calithera Biosciences, Inc., priority 2012, dated 2020).

System: not listed separately
Assay: Pharmacokinetic studies in rats
Assay type: in vivo
Conditions: female, Sprague-Dawley, plasma; Rat, 50 mg/kg oral, Eudragit L100-55 solid dispersion, Suspension
Procedure: For PK studies performed in rats, groups of three female Sprague-Dawley Rats, age 7-10 weeks, with jugular vein cannulae were dosed orally by gavage (5-10 mL/kg) with test compounds. Serial blood samples were collected via the jugular vein cannulae at multiple time-points pre and post-dose. Blood samples were placed into K2 EDTA coated tubes on kept on ice. Samples were centrifuged at 2500×g for 10 minutes at 4° C. and plasma isolated. Plasma was stored at ˜70° C. until bioanalytical analysis.
(§1) The plasma samples were analyzed using Liquid chromatography tandem mass spectrometry (LC/MS/MS) methods. Frozen plasma samples were thawed on ice or room temperature. Aliquotes of study plasma samples and calibration samples prepared in the same matrix as the study samples were quenched in an organic solvent (methanol, acetonitrole or DMF) containing an internal standard. The mixtures were then centrifuged and filtered and the filtrates were injected to an LC/MS/MS system to determine concentrations of test compounds.
O=C(Cc1cccc(OC(F)(F)F)c1)Nc1ccc(CCCCc2nnc(NC(=O)Cc3ccccc3)s2)nn1 [Compound 585] showed a Cmax of 1150 nM and a Tmax of 2 h.

System: P493-6 (myc "on") cells
Assay: Cell proliferation assay
Assay type: cell-based
Conditions: P493-6, 72 h, read-out: Cell prolif P493 72 h IC50
Procedure: P493-6 (myc “on”) cells were maintained in growth media (RPMI-1640, 10% FBS, 2 mM glutamine, 100 units/ml Penicillin and 100 μg/ml streptomycin) at 37° C. with 5% CO2. For compound assay, P493-6 cells were plated in 96-well V-bottom plates on the day of compound addition in 50 μl of growth media at a cell density of 200,000 cells/ml (10,000 cells/well). Compounds were serially diluted in 100% DMSO at 200-times the final concentration. Compounds were diluted 100-fold into growth media and then 50 μl of this mixture was added to cell plates making the final concentration of DMSO 0.5%. Cells were incubated with compound for 72 hrs at 37° C. with 5% CO2 and analyzed for antiproliferative effects either by Cell Titer Glo (Promega) or FACS analysis using the Viacount (Millipore) kit on the Guava instrument.
With O=C(Cc1ccccc1)Nc1ccc(CCCCc2nnc(NC(=O)Cc3ccccc3)s2)nn1 [Compound 295] the IC50 was 39 nM.
Work on O=C(Cc1cccc(OC(F)(F)F)c1)Nc1ccc(CCCCc2nnc(NC(=O)C(O)c3cccc(Cl)c3)s2)nn1 (centres unmarked) [Compound 447] yielded an IC50 of 16 nM.
In the case of CC(C(=O)Nc1nnc(CCCCc2ccc(NC(=O)Cc3ccccc3)nn2)s1)c1ccccc1 (centres unmarked) [Compound 616], the IC50 is reported as 130 nM.
With O=C(Cc1cccc(OC(F)(F)F)c1)Nc1ccc(CCCCc2nnc(NC(=O)Cc3cccc(F)c3)s2)nn1 [Compound 679] the IC50 was 36 nM.
Work on O=C(Cc1cccc(OC(F)(F)F)c1)Nc1ccc(CCCCc2nnc(NC(=O)Cc3cccc(OC(F)(F)F)c3)s2)nn1 [Compound 660] yielded an IC50 of 37 nM.
Molecule CC(C(=O)Nc1ccc(CCCCc2nnc(NC(=O)Cc3cccc(CNC(=O)OC(C)(C)C)c3)s2)nn1)c1ccccc1 (centres unmarked) [Compound 436] has an IC50 of 10 nM.
O=C(Cc1ccccc1)Nc1ccc(CCCCc2nnc(NC(=O)Cc3ccccn3)s2)nn1 [Compound 354] showed an IC50 of 47 nM.
Work on O=C(Cc1ccccc1Cl)Nc1ccc(CCCCc2nnc(NC(=O)Cc3ccccc3F)s2)nn1 [Compound 533] yielded an IC50 of 41 nM.
In the case of O=C(Cc1ccccc1)Nc1ccc(CCCCc2nnc(NC(=O)C(O)c3cccc(Cl)c3)s2)nn1 (centres unmarked) [Compound 318], the IC50 is reported as 17 nM.
Work on O=C(Cc1cccc(OC(F)(F)F)c1)Nc1ccc(CCCCc2nnc(NC(=O)[C@H](O)c3ccccc3)s2)nn1 [Compound 705] yielded an IC50 of 32 nM.
For O=C(Cc1cccc(OC(F)(F)F)c1)Nc1ccc(CCCCc2nnc(NC(=O)[C@@H](O)c3ccccc3)s2)nn1 [Compound 703], the IC50 was 12 nM.
With CC(C)(C)OC(=O)NCc1cccc(CC(=O)Nc2nnc(CCCCc3ccc(NC(=O)Cc4ccccc4)nn3)s2)c1 [Compound 339] the IC50 was 9 nM.
In the case of O=C(Cc1cccc(OC(F)(F)F)c1)Nc1ccc(CCCCc2nnc(NC(=O)CN3CCCC3=O)s2)nn1 [Compound 709], the IC50 is reported as 140 nM.
In the case of O=C(Cc1cccc(OC(F)(F)F)c1)Nc1ccc(CCCCc2nnc(NC(=O)Cn3c(CN4CCOCC4)nc4ccccc43)s2)nn1 [Compound 702], the IC50 is reported as 310 nM.
O=C(Cc1ccc(F)c(OC(F)(F)F)c1)Nc1ccc(CCCCc2nnc(NC(=O)Cc3ccccn3)s2)nn1 [Compound 719] gave an IC50 of 10 nM.
Work on O=C(Cc1cccc(OC(F)(F)F)c1)Nc1ccc(CCCCc2nnc(NC(=O)CN3C[C@@H](O)CC3=O)s2)nn1 [Compound 704] yielded an IC50 of 880 nM.
In the case of O=C(Cc1cccc(OC(F)(F)F)c1)Nc1ccc(CCCCc2nnc(NC(=O)Cc3ccccc3)s2)nn1 [Compound 585], the IC50 is reported as 70 nM.

System: not listed separately
Assay: Pharmacokinetic studies in mice
Assay type: in vivo
Conditions: female, CD-1, mouse, plasma, po, 50 mg/kg, 50 mg/kg oral, 0.5% CMC/0.1% PS80, Suspension
Procedure: For PK studies performed in mice, female CD-1 mice, age 5-8 weeks, were dosed orally by gavage (10 mL/kg volume) with test compounds. At pre-determined time-points (e.g. 1, 3, and 6 hrs) post-dosing, groups of three mice were sacrificed by CO2 inhalation and blood collected via cardiac puncture. Blood samples were placed into K2 EDTA coated tubes and kept on ice. Samples were centrifuged at 2000×g for 10 minutes at 4° C. and plasma isolated. Plasma was stored at ˜70° C. until bioanalytical analysis.
as §1
O=C(Cc1ccccc1)Nc1ccc(CCCCc2nnc(NC(=O)C(O)c3cccc(Cl)c3)s2)nn1 (centres unmarked) [Compound 318] gave a Cmax of 10 nM and a Tmax of 1 h.

Same assay, conditions: female, CD-1, mouse, plasma, po, 50 mg/kg, 50 mg/kg oral, 1% NMP/99% Gelucire, Solution
With O=C(Cc1cccc(OC(F)(F)F)c1)Nc1ccc(CCCCc2nnc(NC(=O)Cc3ccccc3)s2)nn1 [Compound 585] the Cmax was 5160 nM and the Tmax was 1 h.

Same assay, conditions: female, CD-1, mouse, plasma, po, 50 mg/kg, 50 mg/kg oral, 2% NMP/98% Gelucire, Solution
O=C(Cc1cccc(OC(F)(F)F)c1)Nc1ccc(CCCCc2nnc(NC(=O)C(O)c3cccc(Cl)c3)s2)nn1 (centres unmarked) [Compound 447] showed a Cmax of 1130 nM and a Tmax of 1 h.

Same assay, conditions: female, CD-1, mouse, plasma, po, 50 mg/kg, 50 mg/kg oral, Capryol PGMC, Suspension
Work on O=C(Cc1ccccc1)Nc1ccc(CCCCc2nnc(NC(=O)C(O)c3cccc(Cl)c3)s2)nn1 (centres unmarked) [Compound 318] yielded a Cmax of 80 nM and a Tmax of 3 h.

Same assay, conditions: female, CD-1, mouse, plasma, po, 50 mg/kg, 50 mg/kg oral, Eudragit L100-55 solid dispersion, Suspension
O=C(Cc1ccccc1)Nc1ccc(CCCCc2nnc(NC(=O)Cc3ccccc3)s2)nn1 [Compound 295] gave a Cmax of 20 nM and a Tmax of 6 h.
O=C(Cc1cccc(OC(F)(F)F)c1)Nc1ccc(CCCCc2nnc(NC(=O)Cc3ccccc3)s2)nn1 [Compound 585] showed a Cmax of 930 nM and a Tmax of 3 h.

System: Caco-2 cell monolayers
Assay: Caco-2 permeability assay
Assay type: in vitro ADME, human
Conditions: not given
Source text: Caco-2 cells are commonly used in a confluent monolayer on a cell culture insert filter. When cultured in this format and under specific conditions, the cells become differentiated and polarized such that their phenotype, morphologically and functionally resembles the enterocytes lining the small intestine. The cell monolayer provides a physical and biochemical barrier to the passage of small molecules, and is widely used across the pharmaceutical industry as an in vitro model of the human small intestinal mucosa to predict the absorption of orally administered drugs (Hidalgo et al., Gastroenterology, 1989; Artursson, J. Pharm. Sci., 1990). The correlation between the in vitro apparent permeability (P ? app) across Caco-2 monolayers and the in vivo absorption is well established (Artursson et al., Biochem. Biophys. Res. Comm., 1991).
The present assay was used to determine the bidirectional permeability of the compounds of the invention through Caco-2 cell monolayers. Caco-2 cells were grown in confluent monolayers where the media of both the apical (A) and basolateral (B) sides were at pH 7.4. Compounds were dosed at 1 μM in the presence of 200 μM Lucifer Yellow, on the apical side (A→B) or the basolateral side (B→A) for assessment, in duplicate.
The absorption potential of compounds were classified as either Low (P-app<1×10^−6 cm/s) or High (P-app>1×10^−6 cm/s).
In the case of O=C(Cc1ccccc1)Nc1ccc(CCCCc2nnc(NC(=O)Cc3ccccc3)s2)nn1 [Compound 295], the “Significant Efflux” value is reported as “Yes (efflux ratios being significant when greater than or equal to 3 when the Papp (B→A) was greater than or equal to 1×10^−6 cm/s)”.
With O=C(Cc1cccc(OC(F)(F)F)c1)Nc1ccc(CCCCc2nnc(NC(=O)C(O)c3cccc(Cl)c3)s2)nn1 (centres unmarked) [Compound 447] the “Significant Efflux” value was “Yes (efflux ratios being significant when greater than or equal to 3 when the Papp (B→A) was greater than or equal to 1×10^−6 cm/s)”.
In the case of CC(C(=O)Nc1nnc(CCCCc2ccc(NC(=O)Cc3ccccc3)nn2)s1)c1ccccc1 (centres unmarked) [Compound 616], the “Significant Efflux” value is reported as “Yes (efflux ratios being significant when greater than or equal to 3 when the Papp (B→A) was greater than or equal to 1×10^−6 cm/s)”.
For O=C(Cc1cccc(OC(F)(F)F)c1)Nc1ccc(CCCCc2nnc(NC(=O)Cc3cccc(F)c3)s2)nn1 [Compound 679], the “Significant Efflux” value was “No”.
With O=C(Cc1cccc(OC(F)(F)F)c1)Nc1ccc(CCCCc2nnc(NC(=O)Cc3cccc(OC(F)(F)F)c3)s2)nn1 [Compound 660] the “Significant Efflux” value was “Yes (efflux ratios being significant when greater than or equal to 3 when the Papp (B→A) was greater than or equal to 1×10^−6 cm/s)”.
For CC(C(=O)Nc1ccc(CCCCc2nnc(NC(=O)Cc3cccc(CNC(=O)OC(C)(C)C)c3)s2)nn1)c1ccccc1 (centres unmarked) [Compound 436], the “Significant Efflux” value was “Yes (efflux ratios being significant when greater than or equal to 3 when the Papp (B→A) was greater than or equal to 1×10^−6 cm/s)”.
With O=C(Cc1ccccc1)Nc1ccc(CCCCc2nnc(NC(=O)Cc3ccccn3)s2)nn1 [Compound 354] the “Significant Efflux” value was “Yes (efflux ratios being significant when greater than or equal to 3 when the Papp (B→A) was greater than or equal to 1×10^−6 cm/s)”.
For O=C(Cc1ccccc1Cl)Nc1ccc(CCCCc2nnc(NC(=O)Cc3ccccc3F)s2)nn1 [Compound 533], the “Significant Efflux” value was “Yes (efflux ratios being significant when greater than or equal to 3 when the Papp (B→A) was greater than or equal to 1×10^−6 cm/s)”.
With O=C(Cc1ccccc1)Nc1ccc(CCCCc2nnc(NC(=O)C(O)c3cccc(Cl)c3)s2)nn1 (centres unmarked) [Compound 318] the “Significant Efflux” value was “Yes (efflux ratios being significant when greater than or equal to 3 when the Papp (B→A) was greater than or equal to 1×10^−6 cm/s)”.
In the case of O=C(Cc1cccc(OC(F)(F)F)c1)Nc1ccc(CCCCc2nnc(NC(=O)[C@H](O)c3ccccc3)s2)nn1 [Compound 705], the “Significant Efflux” value is reported as “Yes (efflux ratios being significant when greater than or equal to 3 when the Papp (B→A) was greater than or equal to 1×10^−6 cm/s)”.
In the case of O=C(Cc1cccc(OC(F)(F)F)c1)Nc1ccc(CCCCc2nnc(NC(=O)[C@@H](O)c3ccccc3)s2)nn1 [Compound 703], the “Significant Efflux” value is reported as “Yes (efflux ratios being significant when greater than or equal to 3 when the Papp (B→A) was greater than or equal to 1×10^−6 cm/s)”.
For CC(C)(C)OC(=O)NCc1cccc(CC(=O)Nc2nnc(CCCCc3ccc(NC(=O)Cc4ccccc4)nn3)s2)c1 [Compound 339], the “Significant Efflux” value was “Yes (efflux ratios being significant when greater than or equal to 3 when the Papp (B→A) was greater than or equal to 1×10^−6 cm/s)”.
For O=C(Cc1cccc(OC(F)(F)F)c1)Nc1ccc(CCCCc2nnc(NC(=O)Cc3ccccc3)s2)nn1 [Compound 585], the “Significant Efflux” value was “Yes (efflux ratios being significant when greater than or equal to 3 when the Papp (B→A) was greater than or equal to 1×10^−6 cm/s)”.
